Data: patent publication US9937250B2, “Immunogenic tumor associated stromal cell antigen peptides and methods of their use” (University of Pittsburgh—Of the Commonwealth System of …, priority 2011, dated 2018)

System: CD8+ T cells from HLA-A2+ normal donors or HLA-A2+ melanoma patients
Assay: In vitro sensitization of human CD8+ T cells with TASA peptide-pulsed autologous DC, IFN-γ ELISA against peptide-pulsed T2 cells
Assay type: cell-based
How it was run: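 Autologous DC pulsed with 1 μM each TASA peptide pool for 4 h, then used at 10:1 T cell:DC to stimulate CD8+ T cells: twice weekly for normal donors (analysed day 12), once for melanoma patients (day 5). Responders cultured 24 h at 5:1 with T2 cells pulsed with 1 μM peptide or control; IFN-γ measured by ELISA.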

Substance | Specific CD8+ T cell Production of IFN-γ in Response to TASA (donor Mel1, melanoma patient) | Specific CD8+ T cell Production of IFN-γ in Response to TASA (donor Mel2, melanoma patient) | Specific CD8+ T cell Production of IFN-γ in Response to TASA (donor Mel4, melanoma patient) | Specific CD8+ T cell Production of IFN-γ in Response to TASA (donor Mel6, melanoma patient) | Specific CD8+ T cell Production of IFN-γ in Response to TASA (donor Mel8, melanoma patient) | Specific CD8+ T cell Production of IFN-γ in Response to TASA (donor Mel7, melanoma patient) | Specific CD8+ T cell Production of IFN-γ in Response to TASA (donor ND1, normal donor) | Specific CD8+ T cell Production of IFN-γ in Response to TASA (donor ND2, normal donor) | Specific CD8+ T cell Production of IFN-γ in Response to TASA (donor ND3, normal donor) | Specific CD8+ T cell Production of IFN-γ in Response to TASA (donor ND5, normal donor) | Specific CD8+ T Cell Response, HLA-A2+ Normal Donors (of 8) (number of responding donors of 8, response = IFN-γ >30 pg/ml and >2 fold HIV-nef control) | Specific CD8+ T Cell Response, HLA-A2+ Melanoma Patients (of 10) (number of responding patients of 10, response = IFN-γ >30 pg/ml and >2 fold HIV-nef control) | Specific CD8+ T cell Production of IFN-γ in Response to TASA (donor Mel3, melanoma patient) | Specific CD8+ T cell Production of IFN-γ in Response to TASA (donor Mel9, melanoma patient)
RGS5: RGS5-derived peptide 5-13 pulsed onto DC or DC.IL12 (LAALPHSCL; listed as Homo sapiens) | + (Human responses were designated as + if T cell reactivity against T2 cells presenting the indicated peptide (IFN-γ ELISA) was >30 pg/ml and more than 2 fold higher than reactivity versus T2 cells pulsed with the negative control HIV-nef190-198 peptide) | + (Human responses were designated as + if T cell reactivity against T2 cells presenting the indicated peptide (IFN-γ ELISA) was >30 pg/ml and more than 2 fold higher than reactivity versus T2 cells pulsed with the negative control HIV-nef190-198 peptide) | + (Human responses were designated as + if T cell reactivity against T2 cells presenting the indicated peptide (IFN-γ ELISA) was >30 pg/ml and more than 2 fold higher than reactivity versus T2 cells pulsed with the negative control HIV-nef190-198 peptide) | + (Human responses were designated as + if T cell reactivity against T2 cells presenting the indicated peptide (IFN-γ ELISA) was >30 pg/ml and more than 2 fold higher than reactivity versus T2 cells pulsed with the negative control HIV-nef190-198 peptide) | + (Human responses were designated as + if T cell reactivity against T2 cells presenting the indicated peptide (IFN-γ ELISA) was >30 pg/ml and more than 2 fold higher than reactivity versus T2 cells pulsed with the negative control HIV-nef190-198 peptide) |  |  |  |  |  |  |  |  | 
TEM1: TEM1-derived peptide 691-700 pulsed onto DC or DC.IL12 (LLVPTCVFLV; listed as Homo sapiens) | + (Human responses were designated as + if T cell reactivity against T2 cells presenting the indicated peptide (IFN-γ ELISA) was >30 pg/ml and more than 2 fold higher than reactivity versus T2 cells pulsed with the negative control HIV-nef190-198 peptide) |  | + (Human responses were designated as + if T cell reactivity against T2 cells presenting the indicated peptide (IFN-γ ELISA) was >30 pg/ml and more than 2 fold higher than reactivity versus T2 cells pulsed with the negative control HIV-nef190-198 peptide) |  | + (Human responses were designated as + if T cell reactivity against T2 cells presenting the indicated peptide (IFN-γ ELISA) was >30 pg/ml and more than 2 fold higher than reactivity versus T2 cells pulsed with the negative control HIV-nef190-198 peptide) | + (Human responses were designated as + if T cell reactivity against T2 cells presenting the indicated peptide (IFN-γ ELISA) was >30 pg/ml and more than 2 fold higher than reactivity versus T2 cells pulsed with the negative control HIV-nef190-198 peptide) | + (Human responses were designated as + if T cell reactivity against T2 cells presenting the indicated peptide (IFN-γ ELISA) was >30 pg/ml and more than 2 fold higher than reactivity versus T2 cells pulsed with the negative control HIV-nef190-198 peptide) | + (Human responses were designated as + if T cell reactivity against T2 cells presenting the indicated peptide (IFN-γ ELISA) was >30 pg/ml and more than 2 fold higher than reactivity versus T2 cells pulsed with the negative control HIV-nef190-198 peptide) | + (Human responses were designated as + if T cell reactivity against T2 cells presenting the indicated peptide (IFN-γ ELISA) was >30 pg/ml and more than 2 fold higher than reactivity versus T2 cells pulsed with the negative control HIV-nef190-198 peptide) | + (Human responses were designated as + if T cell reactivity against T2 cells presenting the indicated peptide (IFN-γ ELISA) was >30 pg/ml and more than 2 fold higher than reactivity versus T2 cells pulsed with the negative control HIV-nef190-198 peptide) |  |  |  | 
LAALPHSCL (listed as Homo sapiens) |  |  |  |  |  |  |  |  |  |  | 0 | 5 |  | 
EphA2: EphA2-derived peptide 883-891 pulsed onto DC or DC.IL12 (TLADFDPRV; listed as Homo sapiens) | + (Human responses were designated as + if T cell reactivity against T2 cells presenting the indicated peptide (IFN-γ ELISA) was >30 pg/ml and more than 2 fold higher than reactivity versus T2 cells pulsed with the negative control HIV-nef190-198 peptide) | + (Human responses were designated as + if T cell reactivity against T2 cells presenting the indicated peptide (IFN-γ ELISA) was >30 pg/ml and more than 2 fold higher than reactivity versus T2 cells pulsed with the negative control HIV-nef190-198 peptide) | + (Human responses were designated as + if T cell reactivity against T2 cells presenting the indicated peptide (IFN-γ ELISA) was >30 pg/ml and more than 2 fold higher than reactivity versus T2 cells pulsed with the negative control HIV-nef190-198 peptide) | + (Human responses were designated as + if T cell reactivity against T2 cells presenting the indicated peptide (IFN-γ ELISA) was >30 pg/ml and more than 2 fold higher than reactivity versus T2 cells pulsed with the negative control HIV-nef190-198 peptide) |  |  |  |  | + (Human responses were designated as + if T cell reactivity against T2 cells presenting the indicated peptide (IFN-γ ELISA) was >30 pg/ml and more than 2 fold higher than reactivity versus T2 cells pulsed with the negative control HIV-nef190-198 peptide) | + (Human responses were designated as + if T cell reactivity against T2 cells presenting the indicated peptide (IFN-γ ELISA) was >30 pg/ml and more than 2 fold higher than reactivity versus T2 cells pulsed with the negative control HIV-nef190-198 peptide) |  |  | + (Human responses were designated as + if T cell reactivity against T2 cells presenting the indicated peptide (IFN-γ ELISA) was >30 pg/ml and more than 2 fold higher than reactivity versus T2 cells pulsed with the negative control HIV-nef190-198 peptide) | + (Human responses were designated as + if T cell reactivity against T2 cells presenting the indicated peptide (IFN-γ ELISA) was >30 pg/ml and more than 2 fold higher than reactivity versus T2 cells pulsed with the negative control HIV-nef190-198 peptide)
